Laboratory results as given in ChEMBL document CHEMBL1697781, “Assessment of the health effects of chemicals in humans: II. Construction of an adverse effects database for QSAR modeling” (Curr Drug Discov Technol, 2004).

Key:
Details in all cases: human; call rule not given here
[1] = tested on: Hepatotoxicity; assay: FDA HLAED, liver enzyme composite activity
[2] = tested on: Hepatotoxicity; assay: FDA HLAED, alkaline phosphatase increase
[3] = tested on: Hepatotoxicity; assay: FDA HLAED, serum glutamic oxaloacetic transaminase (SGOT) increase
[4] = tested on: Hepatotoxicity; assay: FDA HLAED, serum glutamic pyruvic transaminase (SGPT) increase
[5] = tested on: Hepatotoxicity; assay: FDA HLAED, lactate dehydrogenase (LDH) increase
[6] = tested on: Hepatotoxicity; assay: FDA HLAED, gamma-glutamyl transferase (GGT) increase
Throughout, for GGT Increase - Index Value: reference of the scale not given here.
Throughout, for LDH Increase - Index Value: reference of the scale not given here.

Row | SMILES | Composite Activity - Active [1] | Composite Activity - Marginal [1] | Composite Activity - Score [1] | Alkaline Phosphatase Increase - Activity Score [2] | Alkaline Phosphatase Increase - Index Value [2] | Alkaline Phosphatase Increase - Number of Reports [2] | SGOT Increase - Activity Score [3] | SGOT Increase - Index Value [3] | SGOT Increase - Number of Reports [3] | SGPT Increase - Activity Score [4] | SGPT Increase - Index Value [4] | SGPT Increase - Number of Reports [4] | LDH Increase - Activity Score [5] | LDH Increase - Index Value [5] | LDH Increase - Number of Reports [5] | GGT Increase - Activity Score [6] | GGT Increase - Index Value [6] | GGT Increase - Number of Reports [6] | further results
1 | Oc1ccc2c3c1O[C@H]1[C@@H](O)CC[C@@]4(O)[C@@H](C2)N(CC2CCC2)CC[C@]314 [NALBUPHINE] | 0 | 0 | Inactive | Inactive | 0 | < 4 | Inactive | 0 | < 4 | Inactive | 0 | < 4 | Inactive | 0 | < 4 | Inactive | 0 | < 4 | –
2 | O=C1CC[C@@]2(O)[C@H]3Cc4ccc(O)c5c4[C@@]2(CCN3CC2CC2)[C@H]1O5 [NALTREXONE] | 0 | 0 | Inactive | Inactive | 0 | < 4 | Inactive | 0 | < 4 | Inactive | 23.3 | < 4 | Inactive | 0 | < 4 | Inactive | 0 | < 4 | –
3 | COc1ccc2cc([C@H](C)C(=O)O)ccc2c1 [NAPROXEN] | – | – | – | Inactive | 0.1 | < 4 | Inactive | 0.1 | >= 4 | Inactive | 0 | < 4 | Inactive | 0 | < 4 | Inactive | 0.1 | < 4 | Composite Activity - Active ([1]; Liver): 0; Composite Activity - Marginal ([1]; Liver): 0; Composite Activity - Score ([1]; Liver): Inactive
4 | CCCc1c2oc(C(=O)O)cc(=O)c2cc2c(=O)cc(C(=O)O)n(CC)c12 [NEDOCROMIL] | 0 | 0 | Inactive | Inactive | 0 | < 4 | Inactive | 0.5 | < 4 | Inactive | 0.3 | < 4 | Inactive | 0.3 | < 4 | Inactive | 0 | < 4 | –
5 | CCc1nn(CCCN2CCN(c3cccc(Cl)c3)CC2)c(=O)n1CCOc1ccccc1 [NEFAZODONE] | 0 | 2 | Inactive | Inactive | 1.1 | >= 4 | Marginally Active | 3.6 | >= 4 | Marginally Active | 3.3 | >= 4 | Inactive | 1.1 | >= 4 | Inactive | 1.1 | >= 4 | –
